#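 Where inhibition never reached the appropriate level, the endpoint shown equals the highest concentration tested. Otherwise, values were interpolated linearly from a five-concentration, 48-hour dose response in 96-well plates. Abbreviation: GI50, concentration required for 50% inhibition of growth.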 Calls of active or inactive are those of the source. Cut-off read from the data, not from the text of the source: active = GI50 up to about 1.1 µM and inactive = higher.
# Columns and labels:
# Experiment in all cases: NCI tumour cell line growth inhibition, 48 h
# 786-0 = system: 786-0
# A498 = system: A498
# A549 = system: A549
# ACHN = system: ACHN
# CAKI-1 = system: CAKI-1
# CCRF-CEM = system: CCRF-CEM
# COLO 205 = system: COLO 205
# DU-145 = system: DU-145
# EKVX = system: EKVX
# HCC 2998 = system: HCC 2998
# HCT-116 = system: HCT-116
# HCT-15 = system: HCT-15
# HL-60 = system: HL-60
# HOP-62 = system: HOP-62
# HOP-92 = system: HOP-92
# HT-29 = system: HT-29
# Hs-578T = system: Hs-578T
# IGROV-1 = system: IGROV-1
# K562 = system: K562
# KM12 = system: KM12
# LOX IMVI = system: LOX IMVI
# M14 = system: M14
# MCF7 = system: MCF7
# MDA-MB-231 = system: MDA-MB-231
# MDA-MB-435 = system: MDA-MB-435
# MDA-N = system: MDA-N
# MOLT-4 = system: MOLT-4
# Malme-3M = system: Malme-3M
# NCI-H226 = system: NCI-H226
# NCI-H23 = system: NCI-H23
# NCI-H460 = system: NCI-H460
# NCI-H522 = system: NCI-H522
# NCI/ADR-RES = system: NCI/ADR-RES
# OVCAR-3 = system: OVCAR-3
# OVCAR-4 = system: OVCAR-4
# OVCAR-5 = system: OVCAR-5
# OVCAR-8 = system: OVCAR-8
# PC-3 = system: PC-3
# RXF 393 = system: RXF 393
# SF-268 = system: SF-268
# SF-295 = system: SF-295
# SF-539 = system: SF-539
# SK-MEL-28 = system: SK-MEL-28
# SK-MEL-2 = system: SK-MEL-2
# SK-MEL-5 = system: SK-MEL-5
# SK-OV-3 = system: SK-OV-3
# SN12C = system: SN12C
# SNB-19 = system: SNB-19
# SNB-75 = system: SNB-75
# SR = system: SR
# SW-620 = system: SW-620
# T47D = system: T47D
# TK-10 = system: TK-10
# U-251 = system: U-251
# UACC-257 = system: UACC-257
# UO-31 = system: UO-31
# BT-549 = system: BT-549
# RPMI-8226 = system: RPMI-8226
# UACC-62 = system: UACC-62
compound,measurement,setting,value
C/C(=N\O)c1ccc(OCc2cc(C(F)(F)F)cc(C(F)(F)F)c2)cc1,GI50,786-0,41.2 µM (inactive)
same,GI50,A498,> 100 µM (inactive)
same,GI50,A549,46.1 µM (inactive)
same,GI50,ACHN,25.5 µM (inactive)
same,GI50,CAKI-1,78.2 µM (inactive)
same,GI50,CCRF-CEM,15.9 µM (inactive)
same,GI50,COLO 205,29.9 µM (inactive)
same,GI50,DU-145,> 100 µM (inactive)
same,GI50,EKVX,78.5 µM (inactive)
same,GI50,HCC 2998,32.1 µM (inactive)
same,GI50,HCT-116,31.3 µM (inactive)
same,GI50,HCT-15,30.5 µM
same,GI50,HL-60,4.13 µM (inactive)
same,GI50,HOP-62,50.1 µM (inactive)
same,GI50,HOP-92,17.6 µM (inactive)
same,GI50,HT-29,20.1 µM (inactive)
same,GI50,Hs-578T,37.8 µM (inactive)
same,GI50,IGROV-1,75 µM (inactive)
same,GI50,K562,33 µM (inactive)
same,GI50,KM12,19.3 µM (inactive)
same,GI50,LOX IMVI,39 µM (inactive)
same,GI50,M14,41 µM (inactive)
same,GI50,MCF7,20 µM (inactive)
same,GI50,MDA-MB-231,> 100 µM (inactive)
same,GI50,MDA-MB-435,43.8 µM (inactive)
same,GI50,MDA-N,37.2 µM (inactive)
same,GI50,MOLT-4,14.3 µM (inactive)
same,GI50,Malme-3M,41 µM (inactive)
same,GI50,NCI-H226,40.6 µM (inactive)
same,GI50,NCI-H23,95.3 µM (inactive)
same,GI50,NCI-H460,23.4 µM (inactive)
same,GI50,NCI-H522,38.1 µM (inactive)
same,GI50,NCI/ADR-RES,61.2 µM (inactive)
same,GI50,OVCAR-3,> 100 µM (inactive)
same,GI50,OVCAR-4,53.8 µM (inactive)
same,GI50,OVCAR-5,> 100 µM (inactive)
same,GI50,OVCAR-8,41.9 µM (inactive)
same,GI50,PC-3,34.1 µM (inactive)
same,GI50,RXF 393,21.8 µM (inactive)
same,GI50,SF-268,43.2 µM (inactive)
same,GI50,SF-295,55.2 µM (inactive)
same,GI50,SF-539,60.5 µM (inactive)
same,GI50,SK-MEL-28,61.9 µM (inactive)
same,GI50,SK-MEL-2,57.1 µM (inactive)
same,GI50,SK-MEL-5,50.9 µM (inactive)
same,GI50,SK-OV-3,> 100 µM (inactive)
same,GI50,SN12C,46.2 µM (inactive)
same,GI50,SNB-19,64.1 µM (inactive)
same,GI50,SNB-75,51.9 µM (inactive)
same,GI50,SR,39.4 µM (inactive)
same,GI50,SW-620,32 µM (inactive)
same,GI50,T47D,75.3 µM (inactive)
same,GI50,TK-10,> 100 µM (inactive)
same,GI50,U-251,34.4 µM (inactive)
same,GI50,UACC-257,38.5 µM (inactive)
same,GI50,UO-31,> 100 µM (inactive)
CN(/N=C\c1ccc2ccccc2c1)C1=NCCCN1,GI50,786-0,12.7 µM (inactive)
same,GI50,A498,13.6 µM (inactive)
same,GI50,A549,8.18 µM (inactive)
same,GI50,ACHN,13.3 µM (inactive)
same,GI50,BT-549,1.87 µM (inactive)
same,GI50,CAKI-1,4.88 µM (inactive)
same,GI50,CCRF-CEM,12.7 µM (inactive)
same,GI50,COLO 205,12.7 µM (inactive)
same,GI50,DU-145,27.4 µM (inactive)
same,GI50,EKVX,17.3 µM (inactive)
same,GI50,HCC 2998,11.7 µM (inactive)
same,GI50,HCT-116,13.8 µM (inactive)
same,GI50,HCT-15,17.7 µM
same,GI50,HL-60,8.71 µM (inactive)
same,GI50,HOP-62,12.1 µM (inactive)
same,GI50,HOP-92,2.11 µM (inactive)
same,GI50,HT-29,12 µM (inactive)
same,GI50,Hs-578T,10.7 µM (inactive)
same,GI50,IGROV-1,4.56 µM (inactive)
same,GI50,K562,11.7 µM (inactive)
same,GI50,KM12,15 µM (inactive)
same,GI50,LOX IMVI,7.41 µM (inactive)
same,GI50,MCF7,3.56 µM (inactive)
same,GI50,MDA-MB-231,15.6 µM (inactive)
same,GI50,MDA-MB-435,15.2 µM (inactive)
same,GI50,MOLT-4,2.39 µM (inactive)
same,GI50,Malme-3M,13.3 µM (inactive)
same,GI50,NCI-H226,17 µM (inactive)
same,GI50,NCI-H23,25.9 µM (inactive)
same,GI50,NCI-H460,4.7 µM (inactive)
same,GI50,NCI-H522,13.8 µM (inactive)
same,GI50,NCI/ADR-RES,19.5 µM (inactive)
same,GI50,OVCAR-3,18.9 µM (inactive)
same,GI50,OVCAR-4,26.5 µM (inactive)
same,GI50,OVCAR-5,28.1 µM (inactive)
same,GI50,OVCAR-8,15.4 µM (inactive)
same,GI50,RPMI-8226,14.9 µM (inactive)
same,GI50,RXF 393,14.3 µM (inactive)
same,GI50,SF-268,13.8 µM (inactive)
same,GI50,SF-295,11.9 µM (inactive)
same,GI50,SF-539,19.8 µM (inactive)
same,GI50,SK-MEL-28,14.6 µM (inactive)
same,GI50,SK-MEL-2,15.2 µM (inactive)
same,GI50,SK-MEL-5,11.9 µM (inactive)
same,GI50,SK-OV-3,19.1 µM (inactive)
same,GI50,SNB-75,13.3 µM (inactive)
same,GI50,SR,13.1 µM (inactive)
same,GI50,SW-620,12.1 µM (inactive)
same,GI50,T47D,22.6 µM (inactive)
same,GI50,TK-10,14 µM (inactive)
same,GI50,U-251,20 µM (inactive)
same,GI50,UACC-257,10.4 µM (inactive)
same,GI50,UACC-62,14.2 µM (inactive)
same,GI50,UO-31,9.93 µM (inactive)
